Test system: lacrimal glands
Experiment: Experimentation with balm ingredients applied to the skin adjacent the eyes: tear production
Assay type: in vivo
Details: vapor released over time
From the text: The formulation particularly preferred for the balm includes caffeine, in a medically useful amount, which, when applied to the skin adjacent the eyes, promotes blood circulation thereto. Additionally included is menthol in a medically useful amount, which is included to release a vapor over a period of time subsequent to application to the skin.
By adjacent to the eye is meant the skin area on the face which is below the lower eye lid, and between the end of the nose of the user and the outside end of the eye of the user which is closest to the ear on the same side as the eye being treated.
The plurality of active ingredients have been found, in experimentation when employed together, to have a beneficial synergistic effect which is well beyond the effect of the individual ingredients when employed in a balm by themselves. Currently, an active ingredient portion of the total volume of the balm mixture, includes a combination of active ingredients blended and combined to an active ingredient portion of the total balm mixture. This active ingredient portion of the total mixture ranges from 20 to 60 percent of the total volume of the balm mixture. […]

CC1CCC(C(C)C)C(O)C1 (stereo not shown) [menthol, Menthol]
production of tears by the lacrimal glands: stimulate the lacrimal glands to produce tears
